# Data from patent US5869476A, “Pyrimidinone derivatives” (Boryung Pharmaceutical Co., Ltd., priority 1994, dated 1999).
# Biological target: T1, angiotensin II receptor (Oryctolagus cuniculus, UniProt P34976)
# T1 construct: The aorta was cut into 3~4 mm to form ring samples; from tissue; host or cells: isolated aorta rings of New Zealand White rabbits
# T1 sequence (P34976 1-359): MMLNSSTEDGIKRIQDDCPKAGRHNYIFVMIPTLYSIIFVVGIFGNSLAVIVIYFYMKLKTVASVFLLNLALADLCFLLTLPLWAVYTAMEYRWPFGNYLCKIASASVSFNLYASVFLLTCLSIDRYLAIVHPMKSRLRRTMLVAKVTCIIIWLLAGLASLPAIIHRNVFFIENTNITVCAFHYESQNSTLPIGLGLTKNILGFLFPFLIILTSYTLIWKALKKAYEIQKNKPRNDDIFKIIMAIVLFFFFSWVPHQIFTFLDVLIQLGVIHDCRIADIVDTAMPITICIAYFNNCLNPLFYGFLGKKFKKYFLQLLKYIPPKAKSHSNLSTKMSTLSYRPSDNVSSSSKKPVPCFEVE
# Test: inhibition of angiotensin II induced contraction of isolated rabbit aorta rings
# Format: cell-based, New Zealand White rabbit
# Details: test compound incubated 20 minutes, 37° C., pH 7.4, read-out: IC50 (concentration being required to inhibit angiotensin II induced contraction by 50%)
# Procedure: The antagonistic activity of the representative compounds of the invention was evaluated using the methodology describe below.
# From New Zealand White rabbits (male or female, 2~2.5 kg), aorta was isolated, and fat and connected tissue were removed therefrom. The aorta was cut into 3~4 mm to form ring samples. The aorta sample was suspended in 20 ml of organ bath (37° C.) containing modified Krebs-Henseleit solution saturated with 95% O2 /5% CO2 (pH 7.4).
# The aorta preparation was exposed consecutively to 2 g of tensile strength for 90 minutes intermittently washing the sample with 30 minutes interval and then to 30 mM of KCl to observe contraction response. After washing more than three times, the aorta preparation was again allowed to contract three times for stabilization by adding Angiotensin II ([…]) thereto with 30 minutes interval. The third contraction response to Angiotensin II was considered as control.
# 10 minutes after the third contraction, the test compound was administered to the aorta preparation, which was incubated for 20 minutes.
# Comparing angiotensin II contraction curve obtained from the above inhibition test with that of the control, IC50 (concentration being required to inhibit angiotensin II induced contraction by 50%) was determined for each test compound(Table 1).
row,IC50,Structure (SMILES)
1,9.05 nM,"CCOC(=O)Cc1c(C)nc(CC)n(Cc2ccc(-c3ccccc3-c3nnn[nH]3)cc2)c1=O [Compound 1, 2-ethyl-5-ethoxycarbonylmethyl-6-methyl-3-[[2'-(1H-tetrazol-5-yl)biphenyl-4-yl]methyl]-pyrimidin-4-(3H)-one]"
2,14.2 nM,"CCc1nc(C)c(CC(=O)O)c(=O)n1Cc1ccc(-c2ccccc2-c2nnn[nH]2)cc1 [Compound 2, 2-ethyl-5-carboxymethyl-6-methyl-3-[[2'-(1H-tetrazol-5-yl)-biphenyl-4-yl]methyl]-pyrimidin-4-(3H)-one]"
3,22.3 nM,"CCc1nc(=O)c(CC(=O)O)c(C)n1Cc1ccc(-c2ccccc2-c2nnn[nH]2)cc1 [Compound 3, 2-ethyl-5-carboxymethyl-6-methyl-1-[[2'-(1H-tetrazol-5-yl)-biphenyl-4-yl]methyl]-pyrimidin-4-(1H)-one]"
4,15.1 nM,"CCc1nc(C)c(CC(=O)N(CC)CC)c(=O)n1Cc1ccc(-c2ccccc2-c2nnn[nH]2)cc1 [Compound 4, 2-ethyl-5-diethylaminocarbonylmethyl-6-methyl-3-[[2'-(1H-tetrazol-5-yl)biphenyl-4-yl]methyl]-pyrimidin-4-(3H)-one]"
5,30.7 nM,"CCOC(=O)CCc1c(C)nc(CC)n(Cc2ccc(-c3ccccc3-c3nnn[nH]3)cc2)c1=O [Compound 5, 2-ethyl-5-(2'-ethoxycarbonylethyl)-6-methyl-3-[[2'-(1H-tetrazol-5-yl)biphenyl-4-yl]methyl]-pyrimidin-4-(3H)-one]"
6,22.7 nM,"CCc1nc(C)c(CCC(=O)O)c(=O)n1Cc1ccc(-c2ccccc2-c2nnn[nH]2)cc1 [Compound 6, 2-ethyl-5-(2'-carboxyethyl)-6-methyl-3-[[2'-(1H-tetrazol-5-yl)-biphenyl-4-yl]methyl]-pyrimidin-4-(3H)-one]"
7,2.84 nM,"CCc1nc(=O)c(CCC(=O)O)c(C)n1Cc1ccc(-c2ccccc2-c2nnn[nH]2)cc1 [Compound 7, 2-ethyl-5-(2'-carboxyethyl)-6-methyl-1-[[2'-(1H-tetrazol-5-yl)-biphenyl-4-yl]methyl]-pyrimidin-4-(1H)-one]"
8,73.6 nM,"CCc1nc(C)c(CCC(=O)N(CC)CC)c(=O)n1Cc1ccc(-c2ccccc2-c2nnn[nH]2)cc1 [Compound 8, 2-ethyl-5-(2'-diethylaminocarbonylethyl)-6-methyl-3-[[2'-(1H-tetrazol-5-yl)biphenyl-4-yl]methyl]-pyrimidin-4(3H)-one]"
9,4.35 nM,"CCCc1nc(C)c(CC(=O)OCC)c(=O)n1Cc1ccc(-c2ccccc2-c2nnn[nH]2)cc1 [Compound 9, 2-n-propyl-5-ethoxycarbonylmethyl-6-methyl-3-[[2'-(1H-tetrazol-5-yl)biphenyl-4-yl]methyl]-pyrimidin-4-(3H)-one]"
10,37.1 nM,"CCCc1nc(C)c(CC(=O)O)c(=O)n1Cc1ccc(-c2ccccc2-c2nnn[nH]2)cc1 [Compound 10, 2-n-propyl-5-carboxymethyl-6-methyl-3-[[2'-(1H-tetrazol-5-yl)-biphenyl-4-yl]methyl]-pyrimidin-4-(3H)-one]"
11,7.71 nM,"CCCc1nc(=O)c(CC(=O)O)c(C)n1Cc1ccc(-c2ccccc2-c2nnn[nH]2)cc1 [Compound 11, 2-n-propyl-5-carboxymethyl-6-methyl-1-[[2'-(1H-tetrazol-5-yl)-biphenyl-4-yl]methyl]-pyrimidin-4-(1H)-one]"
12,5.59 nM,"CCCc1nc(C)c(CC(=O)N(CC)CC)c(=O)n1Cc1ccc(-c2ccccc2-c2nnn[nH]2)cc1 [Compound 12, 2-n-propyl-5-diethylaminocarbonylmethyl-6-methyl-3-[[2'-(1H-tetrazol-5-yl)biphenyl-4-yl]methyl]-pyrimidin-4-(3H)-one]"
13,4.99 nM,"CCCc1nc(C)c(CCC(=O)OCC)c(=O)n1Cc1ccc(-c2ccccc2-c2nn[nH]n2)cc1 [Compound 13, 2-n-propyl-5-(2'-ethoxycarbonylethyl)-6-methyl-3-[[2'-(1H-tetrazol-5-yl)biphenyl-4-yl]methyl]-pyrimidin-4-(3H)-one]"
14,7.39 nM,"CCCc1nc(C)c(CCC(=O)O)c(=O)n1Cc1ccc(-c2ccccc2-c2nnn[nH]2)cc1 [Compound 14, 2-n-propyl-5-(2'-carboxyethyl)-6-methyl-3-[[2'-(1H-tetrazol-5-yl)-biphenyl-4-yl]methyl]-pyrimidin-4-(3H)-one]"
15,19.4 nM,"CCCc1nc(=O)c(CCC(=O)O)c(C)n1Cc1ccc(-c2ccccc2-c2nn[nH]n2)cc1 [Compound 15, 2-n-propyl-5-(2'-carboxyethyl)-6-methyl-1-[[2'-(1H-tetrazol-5-yl)-biphenyl-4-yl]methyl]-pyrimidin-4-(1H)-one]"
16,174 nM,"CCCc1nc(C)c(CCC(=O)N(CC)CC)c(=O)n1Cc1ccc(-c2ccccc2-c2nnn[nH]2)cc1 [Compound 16, 2-n-propyl-5-(2'-diethylaminocarbonylethyl)-6-methyl-3-[[2'-(1H-tetrazol-5-yl)biphenyl-4-yl]methyl]-pyrimidin-4-(3H)-one]"
17,4.63 nM,"CCCCc1nc(C)c(CC(=O)OCC)c(=O)n1Cc1ccc(-c2ccccc2-c2nnn[nH]2)cc1 [Compound 17, 2-n-butyl-5-ethoxycarbonylmethyl-6-methyl-3-[[2'-(1H-tetrazol-5-yl)biphenyl-4-yl]methyl]-pyrimidin-4-(3H)-one]"
18,93.3 nM,"CCCCc1nc(=O)c(CC(=O)OCC)c(C)n1Cc1ccc(-c2ccccc2-c2nnn[nH]2)cc1 [Compound 18, 2-n-butyl-5-ethoxycarbonylmethyl-6-methyl-1-[[2'-(1H-tetrazol-5-yl)biphenyl-4-yl]methyl]-pyrimidin-4-(1H)-one]"
19,2.63 nM,"CCCCc1nc(C)c(CC(=O)O)c(=O)n1Cc1ccc(-c2ccccc2-c2nnn[nH]2)cc1 [Compound 19, 2-n-butyl-5-carboxymethyl-6-methyl-3-[[2'-(1H-tetrazol-5-yl)-biphenyl-4-yl]methyl]-pyrimidin-4-(3H)-one]"
20,8.53 nM,"CCCCc1nc(=O)c(CC(=O)O)c(C)n1Cc1ccc(-c2ccccc2-c2nnn[nH]2)cc1 [Compound 20, 2-n-butyl-5-carboxymethyl-6-methyl-1-[[2'-(1H-tetrazol-5-yl)-biphenyl-4-yl]methyl]-pyrimidin-4-(1H)-one]"
21,2.63 nM,"CCCCc1nc(C)c(CC(=O)N(CC)CC)c(=O)n1Cc1ccc(-c2ccccc2-c2nnn[nH]2)cc1 [Compound 21, 2-n-butyl-5-diethylaminocarbonylmethyl-6-methyl-3-[[2'-(1H-tetrazol-5-yl)biphenyl-4-yl]methyl]-pyrimidin-4-(3H)-one]"
22,2.37 nM,"CCCCc1nc(C)c(CC(=O)N(C)C)c(=O)n1Cc1ccc(-c2ccccc2-c2nnn[nH]2)cc1 [Compound 22, 2-n-butyl-5-dimethylaminocarbonylmethyl-6-methyl-3-[[2'-(1H-tetrazol-5-yl)biphenyl-4-yl]methyl]-pyrimidin-4-(3H)-one]"
23,3.5 nM,"CCCCc1nc(C)c(CCC(=O)OCC)c(=O)n1Cc1ccc(-c2ccccc2-c2nnn[nH]2)cc1 [Compound 23, 2-n-butyl-5-(2'-ethoxycarbonylethyl) -6-methyl-3-[[2'-(1H-tetrazol-5-yl)biphenyl-4-yl]methyl]-pyrimidin-4-(3H)-one]"
24,169 nM,"CCCCc1nc(=O)c(CCC(=O)OCC)c(C)n1Cc1ccc(-c2ccccc2-c2nnn[nH]2)cc1 [Compound 24, 2-n-butyl-5-(2'-ethoxycarbonylethyl)-6-methyl-1-[[2'-(1H-tetrazol-5-yl)biphenyl-4-yl]methyl]-pyrimidin-4-(1H)-one]"
25,9.43 nM,"CCCCc1nc(C)c(CCC(=O)O)c(=O)n1Cc1ccc(-c2ccccc2-c2nnn[nH]2)cc1 [Compound 25, 2-n-butyl-5-(2'-carboxyethyl)-6-methyl-3-[[2'-(1H-tetrazol-5-yl)-biphenyl-4-yl]methyl]-pyrimidin-4-(3H)-one]"
26,42.8 nM,"CCCCc1nc(=O)c(CCC(=O)O)c(C)n1Cc1ccc(-c2ccccc2-c2nnn[nH]2)cc1 [Compound 26, 2-n-butyl-5-(2'-carboxyethyl)-6-methyl-1-[[2'-(1H-tetrazol-5-yl)-biphenyl-4-yl]methyl]-pyrimidin-4-(1H)-one]"
27,30.8 nM,"CCCCc1nc(C)c(CCC(=O)N(CC)CC)c(=O)n1Cc1ccc(-c2ccccc2-c2nnn[nH]2)cc1 [Compound 27, 2-n-butyl-5-(2'-diethylaminocarbonylethyl)-6-methyl-3-[[2'-(1H-tetrazol-5-yl)biphenyl-4-yl]methyl]-pyrimidin-4-(3H )-one]"
28,92.3 nM,"CCCCc1nc(C)c(CCC(=O)NCc2ccccc2)c(=O)n1Cc1ccc(-c2ccccc2-c2nnn[nH]2)cc1 [Compound 28, 2-n-butyl-5-(2'-benzylaminocarbonylethyl)-6-methyl-3-[[2'-(1H-tetrazol-5-yl)biphenyl-4-yl]methyl]-pyrimidin-4-(3H)-one]"
